For one test, the target named is T1, NAMPT (Homo sapiens, UniProt P43490).
T1 construct: His tag; host or cells: E. coli
As to the kind of experiment: Biochemical inhibition assay: NAMPT enzymatic reaction, NMN quantified by mass spectrometry. The conditions noted are these: read-out: Biochem IC50. As for the experimental part:
Biochemical Inhibition Assay
NAMPT Protein Purification
Recombinant His-tagged NAMPT was produced in E. coli cells, purified over a Ni column, and further purified over a size-exclusion column by XTAL Biostructures.
The NAMPT Enzymatic Reaction
The NAMPT enzymatic reactions were carried out in Buffer A (50 mM Hepes pH 7.5, 50 mM NaCl, 5 mM MgCl2, and 1 mM THP) in 96-well V-bottom plates. The compound titrations were performed in a separate dilution plate by serially diluting the compounds in DMSO to make a 100× stock. […] The compound and enzyme mix was incubated for 15 minutes at room temperature, then 10 μL of 10× substrate and co-factors in Buffer A were added to the test well to make a final concentration of 1 μM NAM, 100 μM 5-Phospho-D-ribose 1-diphosphate (PRPP), and 2.5 mM Adenosine 5′-triphosphate (ATP). The reaction was allowed to proceed for 30 minutes at room temperature, then was quenched with the addition of 11 μL of a solution of formic acid and L-Cystathionine to make a final concentration of 1% formic acid and 10 μM L-Cystathionine. Background and signal strength was determined by addition (or non-addition) of a serial dilution of NMN to a pre-quenched enzyme and cofactor mix.
A mass spectrometry-based assay was used to measure the NAMPT reaction product (NMN) and the internal control (L-Cystathionine). NMN and L-Cystathionine were detected using the services of Biocius Lifesciences with the RapidFire system. In short, the NMN and L-Cystathionine are bound to a graphitic carbon cartridge in 0.1% formic acid, eluted in 30% acetonitrile buffer, and injected into a Sciex 4000 mass spectrometer. The components of the sample were ionized with electrospray ionization and the positive ions were detected. […] The fragments are quantified and the analyzed by the following method.
First the NMN signal is normalized to the L-Cystathionine signal by dividing the NMN signal by the L-Cystathionine signal for each well. The signal from the background wells are averaged and subtracted from the test plates. […] IC50s are Determined Using Excel and this Formula.

The subject of the next test is A2780 cells. Kind of test: In-vitro cell proliferation assay (SRB), A2780 cells. It counts as cell-based. The note with it: Homo sapiens, A2780, 72 h, A2780 cells, 72 hours, read-out: A2780 IC50. As for the experimental part: In-Vitro Cell Proliferation Assay
After overnight incubation at 37° C. and 5% CO2, the compound titrations were performed in a separate dilution plate by serially diluting the compounds in DMSO to make a 1000× stock. The compounds were then further diluted to 10× final concentration in culture media, whereupon 20 μL of each dilution was added to the plated cells with controls (e.g. DMSO and blank) to make a final volume of 200 μL. The final DMSO concentration in each well was 0.1%. The plates were then incubated for 72 hours at 37° C. in a 5% CO2 incubator. The number of viable cells was then assessed using sulforhodamine B (SRB) assay. Cells were fixed at 4° C. for 1 hour with the addition of 50 μL 30% trichloroacetic acid (TCA) to make a final concentration of 6% TCA. The plates were washed four times with H2O and allowed to dry for at least 1 hour, whereupon 100 μL of a 4% SRB in 1% acetic acid solution was added to each well and incubated at room temperature for at least 30 minutes. The plates were then washed three times with 1% acetic acid, dried, and treated with 100 μL of 10 mM Tris-Base solution. The plates were then read in a microplate reader at an absorbance of 570 nm. Background was generated on a separate plate with media only.
Method for Determining % Inhibition
First, the signals from the background plate are averaged, then the background was subtracted from the test plates.
wherein X denotes the compound concentration 1, Y denotes the compound concentration 2, XX denotes the % inhibition at compound concentration 1 (X), and YY denotes the % inhibition at compound concentration 2 (Y).

Each structure is given as a SMILES string. Where two headings read alike, the source gives them in different places.

T1 sequence (P43490 whole entry): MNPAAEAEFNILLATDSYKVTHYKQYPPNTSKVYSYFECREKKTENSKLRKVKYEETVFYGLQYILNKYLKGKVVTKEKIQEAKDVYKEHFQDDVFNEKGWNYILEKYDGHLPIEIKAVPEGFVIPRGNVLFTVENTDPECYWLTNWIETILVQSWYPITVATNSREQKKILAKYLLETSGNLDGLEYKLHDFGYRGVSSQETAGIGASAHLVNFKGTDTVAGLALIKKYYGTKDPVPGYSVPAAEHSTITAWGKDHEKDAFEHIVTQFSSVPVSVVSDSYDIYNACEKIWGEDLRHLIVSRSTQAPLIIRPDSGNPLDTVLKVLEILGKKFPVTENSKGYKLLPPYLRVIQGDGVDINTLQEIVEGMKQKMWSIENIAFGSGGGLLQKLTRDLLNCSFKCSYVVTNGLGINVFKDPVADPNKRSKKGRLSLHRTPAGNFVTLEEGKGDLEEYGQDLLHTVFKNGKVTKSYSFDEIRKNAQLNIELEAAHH

Consider `Cn1ncc2c(S(=O)(=O)c3ccc(CNC(=O)c4cc5cnccc5[nH]4)cc3)cccc21` [N-{[4-(1-methyl-1H-indazole-4-sulfonyl)phenyl]methyl}-1H-pyrrolo[3,2-c]pyridine-2-carboxamide], for which the IC50 (in general, the point on the concentration scale where inhibition reaches its midpoint) at NAMPT (NAMPT enzymatic assay) is 3.1 nM; in the test on A2780 cells (SRB), 1.5 nM.

Consider `COc1cc(C)cc(S(=O)(=O)c2ccc(CNC(=O)c3cnc4[nH]ncc4c3)cc2)c1OC`, for which the results for the 50% inhibitory concentration (IC50) on NAMPT (NAMPT enzymatic reaction) and in the test on A2780 cells (SRB) were 146 nM and 58.6 nM, respectively.

Take `COc1ccc(Cl)c(S(=O)(=O)c2ccc(CNC(=O)c3cc4ccncc4o3)cc2)c1`: the IC50 at NAMPT (NAMPT enzymatic reaction) is 2.6 nM; in the test with A2780 cells (SRB) it was 20.6 nM.

With `O=C(NCc1ccc(S(=O)(=O)c2cccc3c2OCC3)cc1)c1cc2ccncc2s1` [N-{[4-(2,3-dihydro-1-benzofuran-7-sulfonyl)phenyl]methyl}thieno[2,3-c]pyridine-2-carboxamide], the IC50 on NAMPT (NAMPT enzymatic assay) was 2.2 nM; in the test with A2780 cells (SRB) it was 3 nM.

Regarding `COc1cc(F)cc(S(=O)(=O)c2ccc(CNC(=O)c3cnc4[nH]ncc4c3)cc2)c1`, the half-inhibitory concentration (IC50) at NAMPT (NAMPT enzymatic reaction) was determined as 4.4 nM; in the test on A2780 cells (SRB), 6.3 nM.

Take `Cc1ccc(Cl)c(S(=O)(=O)c2ccc(CNC(=O)c3ccc4nccn4c3)cc2)c1`: the IC50 came out at 5.6 nM on NAMPT (NAMPT enzymatic reaction) and 4.6 nM with A2780 cells (SRB).

For `CC(C)COc1ccc(S(=O)(=O)c2ccc(CNC(=O)c3cnc4[nH]ncc4c3)cc2)cc1` [N-[(4-{[4-(2-methylpropoxy)benzene]sulfonyl}phenyl)methyl]-1H-pyrazolo[3,4-b]pyridine-5-carboxamide], the results for the IC50 on NAMPT (NAMPT enzymatic assay) and in the test with A2780 cells (SRB) were 26.3 nM and 16.2 nM, respectively.

For `COc1ccc(S(=O)(=O)c2ccc(CNC(=O)c3cnc4[nH]ncc4c3)cc2)c(F)c1`, the concentration for half-maximal inhibition (IC50) was 120 nM at NAMPT (NAMPT enzymatic reaction) and 207 nM in the test with A2780 cells (SRB).

As to `Cc1ccnc(S(=O)(=O)c2ccc(CNC(=O)c3cc4ccncc4o3)cc2)c1` [N-{[4-(4-methylpyridine-2-sulfonyl)phenyl]methyl}furo[2,3-c]pyridine-2-carboxamide], the values for the IC50 at NAMPT (NAMPT enzymatic assay) and in the test on A2780 cells (SRB) were 19.2 nM and 11.4 nM, respectively.

Take `O=C(NCc1ccc(S(=O)(=O)c2ccc(C(F)(F)F)cc2C(F)(F)F)cc1)c1cc2ccncc2o1`: the half-maximal inhibitory concentration (IC50) on NAMPT (NAMPT enzymatic assay) turned out to be 53 nM; in the test on A2780 cells (SRB), 63.7 nM.

On to `COc1ccc(C(C)C)cc1S(=O)(=O)c1ccc(CNC(=O)c2cc3cnccc3[nH]2)cc1` [N-[(4-{[2-methoxy-5-(propan-2-yl)benzene]sulfonyl}phenyl)methyl]-1H-pyrrolo[3,2-c]pyridine-2-carboxamide], for which the values for the IC50 at NAMPT (NAMPT enzymatic reaction) and in the test with A2780 cells (SRB assay) were 61 nM and 12 nM, respectively.

For `Cc1cc(C(F)(F)F)ccc1S(=O)(=O)c1ccc(CNC(=O)c2cc3cnccc3[nH]2)cc1`, the IC50 at NAMPT (NAMPT enzymatic assay) is 30.5 nM; with A2780 cells (SRB) it was 25.3 nM.

As for `O=C(NCc1ccc(S(=O)(=O)c2cccc(OC(F)(F)F)c2)cc1)c1cc2ccncc2s1` [N-[(4-{[3-(trifluoromethoxy)benzene]sulfonyl}phenyl)methyl]thieno[2,3-c]pyridine-2-carboxamide], the IC50 at NAMPT (NAMPT enzymatic reaction) was 2 nM; with A2780 cells (SRB assay) it was 2.4 nM.

Take `O=C(NCc1ccc(S(=O)(=O)c2cccc(OCCN3CCOCC3)c2)cc1)c1cc2ccncc2s1`: the results for the IC50 on NAMPT (NAMPT enzymatic assay) and in the test on A2780 cells (SRB) were 3 nM and 1.5 nM, respectively.

In the case of `COc1ccc(F)cc1S(=O)(=O)c1ccc(CNC(=O)c2cc3ccncc3s2)cc1`, the half-maximal inhibitory concentration (IC50) on NAMPT (NAMPT enzymatic reaction) was 2 nM; with A2780 cells (SRB) it was 0.8 nM.

As to `O=C(NCc1ccc(S(=O)(=O)c2cnc3ccccc3c2)cc1)c1cc2ccncc2s1` [N-{[4-(quinoline-3-sulfonyl)phenyl]methyl}thieno[2,3-c]pyridine-2-carboxamide], the concentration for half-maximal inhibition (IC50) at NAMPT (NAMPT enzymatic assay) worked out at 4.4 nM; at NAMPT (NAMPT enzymatic reaction), 3 nM; in the test with A2780 cells (SRB assay), 0.8 nM; with A2780 cells (SRB), 0.9 nM.

Consider `COc1cc(C(F)(F)F)ccc1S(=O)(=O)c1ccc(CNC(=O)c2cc3ccncc3s2)cc1` [N-[(4-{[2-methoxy-4-(trifluoromethyl)benzene]sulfonyl}phenyl)methyl]thieno[2,3-c]pyridine-2-carboxamide], for which the IC50 was found to be 10 nM at NAMPT (NAMPT enzymatic assay), 9 nM on NAMPT (NAMPT enzymatic reaction), 7.5 nM in the test with A2780 cells (SRB assay) and 2.2 nM in the test on A2780 cells (SRB).

On to `O=C(NCc1ccc(S(=O)(=O)c2ccccc2)cc1)c1c[nH]c2ccncc12` [N-{[4-(benzenesulfonyl)phenyl]methyl}-1H-pyrrolo[3,2-c]pyridine-3-carboxamide], for which the IC50 at NAMPT (NAMPT enzymatic assay) was determined as 1910 nM; with A2780 cells (SRB), 2060 nM.

In the case of `O=C(NCc1ccc(S(=O)(=O)c2cccc(N3CCCCC3)c2)cc1)c1cc2ccncc2s1`, the IC50 worked out at 16.7 nM at NAMPT (NAMPT enzymatic assay) and 13.6 nM in the test on A2780 cells (SRB).

In the case of `COc1cncc(S(=O)(=O)c2ccc(CNC(=O)c3ccc4nccn4c3)cc2)c1` [N-{[4-(5-methoxypyridine-3-sulfonyl)phenyl]methyl}imidazo[1,2-a]pyridine-6-carboxamide], the half-inhibitory concentration (IC50) on NAMPT (NAMPT enzymatic assay) turned out to be 9 nM; in the test with A2780 cells (SRB) it was 3.4 nM.

Regarding `O=C(NCc1ccc(S(=O)(=O)c2ccc(Cl)c(F)c2)cc1)c1cc2ccncc2s1` [N-({4-[(4-chloro-3-fluorobenzene)sulfonyl]phenyl}methyl)thieno[2,3-c]pyridine-2-carboxamide], the IC50 turned out to be 3 nM on NAMPT (NAMPT enzymatic reaction) and 7.1 nM in the test on A2780 cells (SRB assay).

Regarding `O=C(NCc1ccc(S(=O)(=O)c2cccc3ccsc23)cc1)c1cc2ccncc2s1` [N-{[4-(1-benzothiophene-7-sulfonyl)phenyl]methyl}thieno[2,3-c]pyridine-2-carboxamide], the IC50 on NAMPT (NAMPT enzymatic assay) and in the test with A2780 cells (SRB) was 1.5 nM each time.

Turning to `Cc1ncccc1S(=O)(=O)c1ccc(CNC(=O)c2cc3cnccc3[nH]2)cc1` [N-{[4-(2-methylpyridine-3-sulfonyl)phenyl]methyl}-1H-pyrrolo[3,2-c]pyridine-2-carboxamide], the IC50 on NAMPT (NAMPT enzymatic assay) was 180 nM; with A2780 cells (SRB), 24 nM.

As for `O=C(NCc1ccc(S(=O)(=O)c2ccc3c(c2)OCO3)cc1)c1cc2ccncc2s1` [N-{[4-(2H-1,3-benzodioxole-5-sulfonyl)phenyl]methyl}thieno[2,3-c]pyridine-2-carboxamide], the figures for the IC50 at NAMPT (NAMPT enzymatic reaction) and in the test with A2780 cells (SRB assay) were 3 nM and 2.5 nM, respectively.

On to `O=C(NCc1ccc(S(=O)(=O)c2ccc3c(c2)OCO3)cc1)c1cc2cnccc2[nH]1` [N-{[4-(2H-1,3-benzodioxole-5-sulfonyl)phenyl]methyl}-1H-pyrrolo[3,2-c]pyridine-2-carboxamide], for which the results for the IC50 on NAMPT (NAMPT enzymatic reaction) and in the test with A2780 cells (SRB assay) were 8 nM and 7 nM, respectively.

For the compound `O=C(NCc1ccc(S(=O)(=O)c2ccccc2)cc1)c1ccc2cnccc2c1` [N-{[4-(benzenesulfonyl)phenyl]methyl}isoquinoline-6-carboxamide], the half-inhibitory concentration (IC50) worked out at 16100 nM at NAMPT (NAMPT enzymatic reaction) and 21300 nM with A2780 cells (SRB assay).

`Cn1ncc2cccc(S(=O)(=O)c3ccc(CNC(=O)c4cc5cnccc5[nH]4)cc3)c21` [N-{[4-(1-methyl-1H-indazole-7-sulfonyl)phenyl]methyl}-1H-pyrrolo[3,2-c]pyridine-2-carboxamide]: the IC50 at NAMPT (NAMPT enzymatic assay) turned out to be 37.1 nM; in the test on A2780 cells (SRB), 11.1 nM.

For `O=C(NCc1ccc(S(=O)(=O)c2ccc(Cl)c(C(F)(F)F)c2)cc1)c1cc2cnccc2[nH]1` [N-[(4-{[4-chloro-3-(trifluoromethyl)benzene]sulfonyl}phenyl)methyl]-1H-pyrrolo[3,2-c]pyridine-2-carboxamide], the IC50 at NAMPT (NAMPT enzymatic reaction) was found to be 8 nM; with A2780 cells (SRB assay), 5 nM.

Take `O=C(NCc1ccc(S(=O)(=O)c2ccccc2)cc1)c1cc(-c2ccccn2)n[nH]1` [N-{[4-(benzenesulfonyl)phenyl]methyl}-3-(pyridin-2-yl)-1H-pyrazole-5-carboxamide]: the concentration for half-maximal inhibition (IC50) turned out to be 7430 nM on NAMPT (NAMPT enzymatic reaction) and 23400 nM in the test on A2780 cells (SRB assay).

These data come from US12336981B2, “Compounds and compositions for the inhibition of NAMPT” (Valo Health, Inc., priority 2010, dated 2025).
